From US7863325B2, “Crystalline genistein sodium salt dihydrate” (Axcentua Pharmaceuticals AB, priority 2008, dated 2011)
Where two headings read alike, the source gives them in different places.

Tests used:
[1] = Solubility in different solvents (aliquot addition until dissolution); assay type: physicochemical
Protocol: Solubility in different solvents: Solubility in different organic solvents was measured using the following protocol. Approximately 25 mg portions of genistein and crystalline genistein sodium dihydrate salt were placed in 48 different vials, separately. 5 volume aliquots of each solvent were added exclusively to a vial. Between each addition, the mixture was checked for dissolution and if no dissolution was apparent, the procedure was continued until dissolution was observed or when 50 volumes had been added.

[2] = Disproportionation study (slurry in distilled water, XRPD, pH); assay type: physicochemical; settings: 50 mg slurried in 250 μL distilled water ca. 48 hours
Protocol: A 50 mg sample of crystalline genistein sodium salt dihydrate was slurried in 250 μL distilled water for ca. 48 hours and then checked by XRPD for disproportionation. The pH of the supernatant was also measured using a Corning 240 pH meter. […] The pH of the supernatant after slurrying was 7.1.

[3] = Hydration study (IPA/water mixtures, XRPD and TGA); assay type: physicochemical; settings: IPA/water mixtures (3%, 5% and 10%), ca. 48 hours, ambient temperature
Protocol: Approximately 100 mg of crystalline genistein sodium salt dihydrate were placed in ca. 500 μL IPA/water mixtures (3%, 5% and 10%) at the water level. Each mixture was agitated for ca. 48 hours at ambient temperature and then filtered to recover the solid for XRPD and TGA studies.

[4] = SuperSol 1000 kinetic and equilibrium solubility assay
[5] = Gravimetric vapor sorption (GVS); assay type: physicochemical
Protocol: Gravimetric Vapor Sorption (GVS): Approximately 15 mg of sample was placed into a wire-mesh vapor sorption balance pan and loaded into an SMS intrinsic vapor sorption balance supplied (Surface Measurement Systems Instruments). The sample was then dried by maintaining a 0% humidity environment until no further weight change was recorded. Subsequently, the sample was then subjected to a ramping profile from 0-90% RH at 10% RH increments, maintaining the sample at each step until equilibration had been attained (99.5% step completion). Upon reaching equilibration, the % RH within the apparatus was ramped to the next step and the equilibration procedure repeated. After completion of the sorption cycle, the sample was then dried using the same procedure. The weight change during the sorption/desorption cycles were then monitored, allowing for the hygroscopic nature of the sample to be determined.
However, between 20 and 70 RH % (typical working range of material) only ca. 2% moisture change was observed.

[6] = Aqueous solubility (slurry shaken ca. 24 hours, filtered, HPLC); assay type: physicochemical; settings: aqueous buffer, thermodynamic from solid
Protocol: Aqueous Solubility: Aqueous solubility was measured using the following protocol. Slurries of genistein and of crystalline genistein sodium dihydrate salt were made up in aqueous media in which pH was set at 4.5, 6.7, and 7.5, each slurry was shaken at ambient temperature for ca. 24 hours and then filtered using a 0.2 μm filter into a clean vial. The saturated solutions were then diluted and analyzed for API (genistein) content using N-Ac-DL-Methionine on a Chirobiotic T HPLC column and UV detector set at λmax=270 nm. The mobile phase was acetonitrile/water run in isocratic mode over a 30 minute period. The results are presented in Table 3, (BDL=below detection limits).

[7] = Stability study (80° C., 40° C./75 RH %, light; XRPD and colour); assay type: physicochemical
Protocol: Sample stability was tested at 80° C. for 7 days and at 40° C./75 RH % for 7 days. Observations such as color change were noted after 7 days and XRPD of samples were taken after 7 days to investigate any solid form change.

[8] = rat
Protocol: Preparation of Dosing Solutions for In-Vivo Study: Genistein and Crystalline genistein sodium salt dihydrate were stored at room temperature under desiccant and protected from light. The dosing solutions were prepared fresh from powders on the day of dosing. The dosing solution for intravenous administration (IV) was prepared at 1 mg/mL (free acid) in 50:50 DMSO:saline. The dosing solutions for intraduodenal administration (ID) were prepared at 2 mg/mL (genistein free acid) in a 0.2% sodium carboxymethyl cellulose (Na CMC) solution in water.
Animal Dosing: The pharmacokinetics of genistein was evaluated in fasted male Sprague-Dawley rats. Each animal was fitted with a jugular vein cannula (JVC) for blood sampling. Animals intended for intravenous dosing were fitted with an additional JVC for dose administration. Animals intended for intraduodenal dosing were fitted with an intraduodenal cannula (IDC) for dose administration. Surgically modified animals were housed one per cage. All animals were supplied with a commercial rodent diet (LabDiet, Certified Rodent Diet #5002) ad libitum prior to study initiation. […] Water was supplied ad libitum.
Intraduodenal dosing solutions were administered as a single bolus dose at time zero on the day of dosing. Intravenous doses were administered as a slow IV injection over approximately 1 minute. Blood sampling times began at the end of the infusion. Blood samples were collected.
Each blood sample was collected from the rats via a jugular vein cannula and placed into chilled polypropylene tubes containing sodium heparin as an anticoagulant. Samples were centrifuged at a temperature of 4° C. and at a speed of 13,000 rpm for 5 minutes. Samples were maintained chilled throughout processing. Each plasma sample was split into two aliquots. The first aliquot contained 50 μL of plasma. All remaining plasma volume was used for the second aliquot. Samples were then placed on dry ice, and stored in a freezer set to maintain −60° C. to −80° C. The total concentration of genistein in plasma samples were analyzed by LC-MS/MS after an overnight incubation with glucuronidase/arylsulfatase enzyme mixture. Pharmacokinetic parameters were calculated using the WinNonlin software.
Analysis of Plasma Samples: An LC-MS/MS analytical method for the determination of genistein in rat plasma was developed. Prior to sample analysis, a standard curve was analyzed to determine the specificity, range, and linearity of the method. Total genistein in plasma samples was determined by pre-treating all samples with β-glucuronidase/arylsulfatase enzymes and incubating prior to analysis. Incubation with the enzyme mix deconjugated any glucuronide or sulfate metabolites of genistein back to the parent form.
Acceptance Criteria for LC-MS/MS Analysis: One standard curve was dispersed throughout each analytical run. At least ⅝ of the standards must be accurate to within ±20%, except at the LLOQ where ±25% is acceptable, in order for the run to pass.
Pharmacokinetic Analysis: Individual plasma concentrations versus time data for genistein were subjected to non-compartmental analysis using the pharmacokinetic program WinNonlin v. […] Plasma concentrations below the limit of quantitation (10 ng/mL) were assigned a value of zero for PK analysis only.

[9] = intravenous, 1 mg/kg, mean ± SD, n = 3

O.O.O=c1c(-c2ccc(O)cc2)coc2cc(O)cc(O)c12.[Na] [genistein sodium salt dihydrate]
solubility ([1]; aqueous with cosolvent or surfactant or cyclodextrin, thermodynamic from solid, Acetone/Water (50:50)): 69.6 mg/mL | solubility ([1]; organic solvent or mixture, thermodynamic from solid, 1,4-dioxane): < 10.6 mg/mL | solubility ([1]; organic solvent or mixture, thermodynamic from solid, 1-Butanol (BuOH)): 19.3 mg/mL | solubility ([1]; organic solvent or mixture, thermodynamic from solid, 2-Propanol (IPA)): < 10.2 mg/mL | solubility ([1]; organic solvent or mixture, thermodynamic from solid, Acetone): < 10.2 mg/mL | solubility ([1]; organic solvent or mixture, thermodynamic from solid, Acetone/IPA (50:50)): 20.2 mg/mL | solubility ([1]; organic solvent or mixture, thermodynamic from solid, Acetonitrile (MeCN)): < 10.4 mg/mL | solubility ([1]; organic solvent or mixture, thermodynamic from solid, Cyclohexane): < 10.9 mg/mL | solubility ([1]; organic solvent or mixture, thermodynamic from solid, Dichloromethane (DCM)): < 10.8 mg/mL | solubility ([1]; organic solvent or mixture, thermodynamic from solid, Diisopropylether (DIPE)): < 9.7 mg/mL | solubility ([1]; organic solvent or mixture, thermodynamic from solid, Dimethyl sulfoxide (DMSO)): > 235 mg/mL | solubility ([1]; organic solvent or mixture, thermodynamic from solid, Ethanol (EtOH)): 98 mg/mL | solubility ([1]; organic solvent or mixture, thermodynamic from solid, Heptane): < 9.9 mg/mL | solubility ([1]; organic solvent or mixture, thermodynamic from solid, Methanol (MeOH)): < 8.8 mg/mL | solubility ([1]; organic solvent or mixture, thermodynamic from solid, Methyl acetate (MeOAc)): < 10.2 mg/mL | solubility ([1]; organic solvent or mixture, thermodynamic from solid, Methyl isobutyl ketone (MIBK)): < 9 mg/mL | solubility ([1]; organic solvent or mixture, thermodynamic from solid, Methylethyl ketone (MEK)): < 9.2 mg/mL | solubility ([1]; organic solvent or mixture, thermodynamic from solid, N-Methyl-2-pyrrolidinone (NMP)): 90.4 mg/mL | solubility ([1]; organic solvent or mixture, thermodynamic from solid, N-N-dimethylformamide (DMF)): > 218 mg/mL | solubility ([1]; organic solvent or mixture, thermodynamic from solid, Octanol): < 11 mg/mL | solubility ([1]; organic solvent or mixture, thermodynamic from solid, Tetrahydrofuran (THF)): < 10.4 mg/mL | solubility ([1]; organic solvent or mixture, thermodynamic from solid, Toluene): < 9.9 mg/mL | solubility ([1]; organic solvent or mixture, thermodynamic from solid, Toluene/Dioxane (50:50)): < 9.7 mg/mL | solubility ([1]; organic solvent or mixture, thermodynamic from solid, tert-Butylmethyl ether (TBME)): < 9.2 mg/mL | Disproportionation (XRPD) [2]: No signs of disproportionation | pH of the supernatant after slurrying [2]: 7.1 | Hydrate formation (XRPD, TGA) [3]: no further hydrates | C[Eq] (late kinetic solubility) ([4]; EtOH 100%): 11.20 mg×1^−1 | C[MSS] (early kinetic solubility) ([4]; EtOH 100%): 10.85 mg×1^−1 | ISI (Intrinsic Solubility Index) ([4]; EtOH 100%): 0.07 | ISI / late solubility profile, rating in words ([4]; EtOH 100%): poor | KSR (Kinetic Solubility ratio) ([4]; EtOH 100%): 0.97 | KSR, rating in words ([4]; EtOH 100%): excellent | MSS (Maximum Solubility Speed) ([4]; EtOH 100%): 36.90 mg×1^−1×min^−1 | MSS, rating in words ([4]; EtOH 100%): excellent | ΔC [C, − CMSS] ([4]; EtOH 100%): 0.35 mg×1^−1 | C[Eq] (late kinetic solubility) ([4]; EtOH/dH2O 50/50 (vol/vol)): 17.40 mg×1^−1 | C[MSS] (early kinetic solubility) ([4]; EtOH/dH2O 50/50 (vol/vol)): 14.67 mg×1^−1 | ISI (Intrinsic Solubility Index) ([4]; EtOH/dH2O 50/50 (vol/vol)): 0.60 | ISI / late solubility profile, rating in words ([4]; EtOH/dH2O 50/50 (vol/vol)): good-to-acceptable | KSR (Kinetic Solubility ratio) ([4]; EtOH/dH2O 50/50 (vol/vol)): 0.84 | KSR, rating in words ([4]; EtOH/dH2O 50/50 (vol/vol)): excellent | MSS (Maximum Solubility Speed) ([4]; EtOH/dH2O 50/50 (vol/vol)): 20.66 mg×1^−1×min^−1 | MSS, rating in words ([4]; EtOH/dH2O 50/50 (vol/vol)): excellent | ΔC [CEq − CMSS] ([4]; EtOH/dH2O 50/50 (vol/vol)): 2.73 mg×1^−1 | C[Eq] (late kinetic solubility) ([4]; EtOH/dH2O 75/25 (vol/vol)): 15.86 mg×1^−1 | C[MSS] (early kinetic solubility) ([4]; EtOH/dH2O 75/25 (vol/vol)): 11.20 mg×1^−1 | ISI (Intrinsic Solubility Index) ([4]; EtOH/dH2O 75/25 (vol/vol)): 1.26 | ISI / late solubility profile, rating in words ([4]; EtOH/dH2O 75/25 (vol/vol)): excellent | KSR (Kinetic Solubility ratio) ([4]; EtOH/dH2O 75/25 (vol/vol)): 0.71 | KSR, rating in words ([4]; EtOH/dH2O 75/25 (vol/vol)): excellent | MSS (Maximum Solubility Speed) ([4]; EtOH/dH2O 75/25 (vol/vol)): 37.33 mg×1^−1×min^−1 | MSS, rating in words ([4]; EtOH/dH2O 75/25 (vol/vol)): excellent | ΔC [CEq − CMSS] ([4]; EtOH/dH2O 75/25 (vol/vol)): 4.66 mg×1^−1 | Maximum water adsorbed (GVS) ([5]; 0-90% RH cycle): 45 wt % | Moisture change (GVS) ([5]; between 20 and 70 RH %): ca. 2% | solubility ([6]; Water/slurry pH 4.5, ambient temperature): 0.136 mg/mL | solubility ([6]; Water/slurry pH 6.7, ambient temperature): 0.707 mg/mL | solubility ([6]; Water/slurry pH 7.5, ambient temperature): 0.65 mg/mL | Solid form stability (XRPD, colour) ([7]; 40° C./75 RH % for 7 days): no change | Solid form stability (XRPD, colour) ([7]; 80° C. for 7 days): slight loss in crystallinity | Light stability ([7]; 7 day light stability tests): no change in color or solid form | Time after ID dosing at which Cmax was observed ([8]; intraduodenal dosing, mean profile (FIG. 13)): ≤ 15 min | AUClast ([8]; intraduodenal, 20 mg/kg, mean ± SD, n = 3): 1161 ± 358 kg·ng·h/mL/mg | Pharmacokinetic profile following IV dosing, compared between the two forms ([8]; intravenous, 1 mg/kg): not significantly different | AUClast [8, 9]: 2129 ± 331 kg·ng·h/mL/mg | AUC∞ [8, 9]: 2189 ± 356 kg·ng·h/mL/mg
